Source: US20240207421A1, “NERVE TARGETING PEPTIDES AND METHODS OF USE” (ALUME BIOSCIENCES, INC., priority 2020, published 2024)

System: Laminin 421/521
Test: Phage display library screening (Example 2), NEB laminin-binding peptides
Set-up: species or system human
Details: Laminin 421/521, not 211 and 411; combined unique sequence count, Python/R script analysis
Procedure: Phage display library screens were used to identify peptides that bind to target proteins (including specific laminin trimers) that are expressed in human nerves, as described in Table 3. These screens were also carried out to identify peptides that could bind selectively to nerves versus muscle. Such peptides could therefore be useful for systemic in-vivo labeling of nerves during fluorescence assisted surgery. Specifically, m 13 phage libraries expressing 7 or 12 random amino acid peptides, or a cyclic peptide CX7C, on the N-terminus of the minor coat protein pIII (New England Biolabs; NEB) were processed through multiple rounds of selection for binding to target proteins expressed in nerves, or to excised human nerves, nerve extracts, or muscle, as described further below.
For screening against the specified target proteins in Table 1, including LN211, LN411, LN421, and LN521, the phage library was processed by up to 4 binding and wash cycles. For selection, phage libraries were incubated for up to 24 hours at 4° C. in 96 well plates that had been coated with one of the target proteins. Plates were then washed with PBS and phage were eluted using 0.2M glycine pH 2.0. Phage supernatants where then neutralized with Tris pH 9.0 prior to plating on TGI bacteria and LB agar plates. Colonies were counted to determine titer followed by DNA preparation of pools of phage and NextGen sequencing. After rounds of selection, phage were pooled and amplified for iterative selection. Phage that were bound at each round were sequenced. NextGen sequencing of pools after 2, 3 and 4 rounds of selection was used to isolate candidate sequences that were analyzed further to identify those that specifically bound each unique target protein.
For all NEB sequence datasets, a python script was used to translate, trim, and filter the peptide sequences (see details above). A python script was used to group peptides from different assays according to laminin complex binding (laminin complex 211, 411, 421, or 521) and combine the unique sequence counts for each peptide. An R script was written to merge the peptide sequences from different data files and determine peptides that specifically bind one laminin complex and not the others, or that bind both laminin 421 and 521 but not 211 and 411.

Substance | Count
ADMPQMTLKYGV (Laminin 421/521-binding peptide) | 47
AGAYTSRHAFDE (Laminin 421/521-binding peptide) | 39
AHAAGRDMRQGT (Laminin 421/521-binding peptide) | 36
AKTQAPSNWSGV (Laminin 421/521-binding peptide) | 43
ALGGEPRKAYQR (Laminin 421/521-binding peptide) | 45
ALKIGPETTIYM (Laminin 421/521-binding peptide) | 35
ALPWQSGVHGTK (Laminin 421/521-binding peptide) | 34
ANRYLAS (Laminin 421/521-binding peptide) | 40
APKVTNARPTQL (Laminin 421/521-binding peptide) | 147
AQGVWWSEWFAP (Laminin 421/521-binding peptide) | 42
AQNLRVHAWASL (Laminin 421/521-binding peptide) | 28
AQRMNQA (Laminin 421/521-binding peptide) | 38
ASHSRPLMNYAP (Laminin 421/521-binding peptide) | 49
ATSKYPNSWAQT (Laminin 421/521-binding peptide) | 80
AVRPLGLPDNHR (Laminin 421/521-binding peptide) | 29
AVVSQNQMSQQK (Laminin 421/521-binding peptide) | 64
AVYPLDLGAGMR (Laminin 421/521-binding peptide) | 46
AWNGNRS (Laminin 421/521-binding peptide) | 47
AWVEAQNASNPS (Laminin 421/521-binding peptide) | 160
CFQPKMNSC (Laminin 421/521-binding peptide) | 42
CGETTAGKC (Laminin 421/521-binding peptide) | 33
CGITQTTTC (Laminin 421/521-binding peptide) | 55
CGLATNKSC (Laminin 421/521-binding peptide) | 39
CHNADNNGC (Laminin 421/521-binding peptide) | 32

Substance | Count
CHQRQQTYC (Laminin 421/521-binding peptide) | 55
CHRTYNSTC (Laminin 421/521-binding peptide) | 46
CIGGPHRNC (Laminin 421/521-binding peptide) | 29
CKSERGPEC (Laminin 421/521-binding peptide) | 30
CKSPAIKGC (Laminin 421/521-binding peptide) | 29
CKSPIKGTC (Laminin 421/521-binding peptide) | 27
CKWTQLWGC (Laminin 421/521-binding peptide) | 40
CLHNGQRSC (Laminin 421/521-binding peptide) | 37
CLKDTHLNC (Laminin 421/521-binding peptide) | 40
CLNQKWEAC (Laminin 421/521-binding peptide) | 64
CLQKNHKFC (Laminin 421/521-binding peptide) | 27
CMNKIQRDC (Laminin 421/521-binding peptide) | 131
CNHLTQKLC (Laminin 421/521-binding peptide) | 45
CNSWKAAKC (Laminin 421/521-binding peptide) | 29
CPMHQSKTC (Laminin 421/521-binding peptide) | 28
CQGWPRPMC (Laminin 421/521-binding peptide) | 30
CQTSGHHQC (Laminin 421/521-binding peptide) | 31
CSHHKLKQC (Laminin 421/521-binding peptide) | 359
CSKHNHSRC (Laminin 421/521-binding peptide) | 295
CSLANPATC (Laminin 421/521-binding peptide) | 52
CSRAGLSAC (Laminin 421/521-binding peptide) | 30
CSSQAKRSC (Laminin 421/521-binding peptide) | 31
CSVWNSGNC (Laminin 421/521-binding peptide) | 43
CTAWTRQEC (Laminin 421/521-binding peptide) | 31

Substance | Count
CTDGRNFVC (Laminin 421/521-binding peptide) | 28
CTGETLLTC (Laminin 421/521-binding peptide) | 28
CTGRISKHC (Laminin 421/521-binding peptide) | 43
CTKSPSNSC (Laminin 421/521-binding peptide) | 58
CTPRSATLC (Laminin 421/521-binding peptide) | 37
CTSKLARHC (Laminin 421/521-binding peptide) | 45
CTSSSHQTC (Laminin 421/521-binding peptide) | 28
CTWKHRDNC (Laminin 421/521-binding peptide) | 30
CVLKCEDQKYRG (Laminin 421/521-binding peptide) | 27
CWSGNSRSC (Laminin 421/521-binding peptide) | 42
DDLLTAPRLGVW (Laminin 421/521-binding peptide) | 54
DGANMENIAPAN | 27
DGQVSDHSYVQW (Laminin 421/521-binding peptide) | 101
DIMKSPRSNLRS (Laminin 421/521-binding peptide) | 37
DRLTPITWDWSR (Laminin 421/521-binding peptide) | 86
DRMYSTVPAEGL (Laminin 421/521-binding peptide) | 27
DSLYRGMHQPRI (Laminin 421/521-binding peptide) | 29
DVIHSSRGAYFE (Laminin 421/521-binding peptide) | 36
DWTQVRVTNWFL (Laminin 421/521-binding peptide) | 35
EAVSTQI (Laminin 421/521-binding peptide) | 27
EDRMMTYRYTST (Laminin 421/521-binding peptide) | 29
ETGGLAYGSGQK (Laminin 421/521-binding peptide) | 28
ETYKVTRVISPW (Laminin 421/521-binding peptide) | 50
EVERILTPHVNN (Laminin 421/521-binding peptide) | 29

Substance | Count
EYVKFSHSPRTY (Laminin 421/521-binding peptide) | 31
EYWHQRGSWFHR (Laminin 421/521-binding peptide) | 55
FNSDSRSTHQED (Laminin 421/521-binding peptide) | 29
FPLKIRT (Laminin 421/521-binding peptide) | 42
GAMMNSNNLVAR (Laminin 421/521-binding peptide) | 43
GDAQILM (Laminin 421/521-binding peptide) | 38
GDLLLKR (Laminin 421/521-binding peptide) | 47
GDLWNVP (Laminin 421/521-binding peptide) | 51
GDVITAYINPWP (Laminin 421/521-binding peptide) | 39
GEPLTRFPNSDS (Laminin 421/521-binding peptide) | 52
GFADVIHRKWSS (Laminin 421/521-binding peptide) | 53
GGGYHIFGPLVT (Laminin 421/521-binding peptide) | 43
GGWQSLWDKPEH (Laminin 421/521-binding peptide) | 31
GGYDLPWANWQN (Laminin 421/521-binding peptide) | 497
GHPWTEIDFMSS (Laminin 421/521-binding peptide) | 50
GHRTLVTSERYL (Laminin 421/521-binding peptide) | 38
GINLRALDLHAN (Laminin 421/521-binding peptide) | 27
GIVPSRHTTGLG (Laminin 421/521-binding peptide) | 28
GKPDHRLVSLWR (Laminin 421/521-binding peptide) | 309
GLLDWGSLQGGN (Laminin 421/521-binding peptide) | 30
GPKNHHQ (Laminin 421/521-binding peptide) | 51
GPLLFRG (Laminin 421/521-binding peptide) | 30
GPMLKNLSDAVT (Laminin 421/521-binding peptide) | 31
GQPRNIHLPGTH (Laminin 421/521-binding peptide) | 40
